Drawing on a melting point compilation (Tetko et al.; mined from patent text by program, amines drawn as free bases though some values may be those of a salt), this text covers melting point for 84 compounds.

As usually defined, the melting point is the temperature of the solid-liquid transition.

In turn, `CNC(=O)NS(=O)(=O)c1cc2c(cc1OC)OC(C)(C)C(NC(=O)c1cc(Cl)ccc1OC)C2` (centres undefined) had a melting point of 248 °C.
The compound `CCOc1ccc2c(c1C=NO)OCO2` displayed a melting point of 161 to 164 °C.
The figure for `CC1(C)N=C(c2ccccc2F)c2cc(I)ccc2NC1=O` is 212 °C; for `CCCc1c2nc(C(=O)OC)cc(Cl)c2cc2c(=O)cc(C(=O)OCC)oc12` it is 176 to 178 °C; for `CCCc1nn(-c2ccc(C(F)(F)F)cn2)cc1CCCCOc1ccc(CCC(=O)O)c(OC)c1` it is 91 to 92 °C.
For `CCCc1c(OCCCCCOc2ccc3c(c2CCC)OC(C(=O)O)CC3O)ccc(C(C)=O)c1O` (centres undefined), the melting point was in the range of 95.5 to 97.5 °C.
`COc1ccc(Nc2cc(C)nc(N)n2)cc1Cl` yielded a melting point of 250 °C.
Then `Cc1cc(C)c2c(c1O)C(NCc1ccccc1)=C(c1ccccc1)C2`, with 214 to 215 °C; and `Cc1nc2c(s1)C(=O)N(C(C)(C)C)C2=O`, with 106 °C; and `COc1ccc(Cc2oc3c(Cl)cc(CCC(=O)O)c(O)c3c2C)cc1`, with 149 to 151 °C.
The figure for `CCOC(=O)C(=NO)C(C)C` is 54 to 55 °C; for `CN(C(=O)C1CCC1)c1cccc(-c2ccnc3c(C(=O)c4ccccc4)cnn23)c1` it is 168 to 170 °C.
In turn, `CCOC(=O)C1=C(N)NC2=C(C(=O)CCC2)C1c1cccc(C#N)c1` (centres undefined) yielded a melting point of 262 °C.
The figure for `O=C1CN(c2ccc(OC(F)(F)C(F)F)cc2)C(=O)CN1` is above 250 °C; for `Cc1c2n(c3ccccc13)C(=O)C(C(O)c1cn(C(c3ccccc3)(c3ccccc3)c3ccccc3)c(C)n1)CC2` (centres undefined) it is 135 to 136 °C.
As for `C=C(C)C(=O)OCCOCCOC(=O)c1ccc(O)c(Cl)c1`, the melting point lay in the range of 57 to 58.5 °C.
In turn, `CC(=O)Oc1ccc(C=CC(=O)Nc2cc(C)c(OCc3ccccc3)c(C)c2)cc1OC(C)=O` showed a melting point of 125 to 127 °C.
Then `Nc1ccsc1-c1nc(C2CC2)no1`, with 51 to 54 °C.
The figure for `CN1C(=O)CN=C(c2ccccc2F)c2cc(NC(=O)N3CCCC3)ccc21` is 159 to 160 °C; for `CN(C)c1ccc2c(n1)C(c1ccccc1Cl)=NCc1n[nH]c(=O)n1-2` it is 244 to 246 °C.
The figure for `CC1=C(CC(NC(=O)c2ccc(Cl)cc2)NC(=NC#N)Nc2cccnc2)C(C)(C)CCC1` (centres undefined) is 95 to 96 °C; for `CC(C)(C)CC(=O)N1CCN(c2ccc3ncc(Br)n3n2)CC1` it is 170 to 171 °C; for `CC(C)(C)OC(=O)NNC(=O)c1ncc(OCc2ccccc2)c(OCc2ccccc2)c1CCl` it is 170 to 171 °C.
Take `O=S1(=O)c2cccc3cccc(c23)N1CCN1CCC(=Cc2cc3cc(F)ccc3[nH]2)CC1`: the melting point is 160 °C.
Take `COC(=O)c1ccc(C)cc1N`: the melting point was 41 to 43 °C.
Regarding `Clc1ccc(CN2C(=NCCCn3ccnc3)c3cccc4cccc2c34)cc1`, the melting point was 90 to 91 °C.
The compound `CC(=O)Oc1cn(C(C)=O)c2ccccc12` returned a melting point of 79.6 to 80.5 °C.
Compound `Cc1cccc(-c2nc3ccc(OCCN(C)C)cc3n2Cc2ccccc2Br)c1` had a melting point of 71 °C.
Then `COC(=O)[C@H]1Cc2cc(SC)ccc2C(=O)[C@H](C)S1` (relative stereo), with 105 to 106 °C; and `Cc1c(C)c(N2CCN(c3ccc(F)cc3)CC2)c(C)c2c1OC(C)(C)C2=O`, with 176 to 179 °C.
Then `Nc1n[nH]c(-c2ccco2)n1`, with 204 to 206 °C; and `O=C(O)Cc1c(C(=O)c2cccs2)[nH]c2cc(Cl)ccc12`, with 177 to 178 °C; and `COc1ccc2c(-c3ccc(Br)cc3)csc2c1`, with 102 to 104 °C.
The figure for `CC(=O)NCC1CN(c2ccc(N3CCN(c4nnc(C5CC5)s4)CC3)c(F)c2)C(=O)O1` (centres undefined) is 217 to 218 °C.
`COc1c(F)cc(NN)cc1F`: the melting point was in the range of 60.5 to 62.3 °C.
Regarding `Oc1cccc(-n2cnc3cc(C(F)(F)F)ccc32)c1`, the melting point lay in the range of 168 to 170 °C.
`CC(=O)C(O)C1OC(O)(N=C=O)C(O)(C(C)=O)C(O)(C(C)=O)C1(O)C(C)=O` (centres undefined) returned a melting point of 113 to 115 °C.
For `COc1cc2c3ccc(OC)c(OC)c3n(CCCc3ccccc3)c2cc1OC`, the melting point was in the range of 116 to 118 °C.
`CCc1cccc(N2C(c3ccc(Cl)cc3)=NS(=O)(=O)c3cnccc32)c1` yielded a melting point of 227 to 229 °C.
Consider `COC(=O)C(=CC1C(C(=O)O)C1(C)C)OC` (centres undefined), for which the melting point stood at 78 °C.
As for `O=S(=O)(Nc1cc(C(F)(F)F)ccc1Oc1ccccc1CO)c1cc(C(F)(F)F)cc(C(F)(F)F)c1`, the melting point was 123 to 125 °C.
The figure for `COC(=O)c1cc(OCCCCCCOc2ccc(-c3ccccc3)cc2)ccc1O` is 91 to 92 °C; for `CCCn1nc(C(C)C)c(C(=O)O)c1Cc1ccc(-c2ccccc2-c2nnn(C(c3ccccc3)(c3ccccc3)c3ccccc3)n2)cc1` it is 136 to 139 °C; for `Cc1ccc(NC(=O)c2ccc(CN3CCC[C@H](N(C)C)C3)c(C(F)(F)F)c2)cc1Nc1nccc(-c2cncnc2)n1` it is 160 to 162 °C.
The figure for `Cn1c(C(=O)O)c(Br)c2cc(OCc3ccccc3)ccc21` is 210 °C; for `O=C(O)CN1CCOc2ccc([N+](=O)[O-])cc2C1=O` it is 110 to 120 °C; for `Cc1ccc(-c2c(CN3C(=O)c4ccccc4C3=O)n(CC(C)C)c(=O)c3ccc(OCc4ccccc4)cc23)cc1` it is 158 to 159 °C.
In the case of `CCCCCCCCOC(=O)Nc1c2c(nc3ccccc13)CCCC2`, the melting point lay within 96 to 99 °C.
The figure for `O=C(C=Cc1ccccc1)C(Cc1ccccc1)C(=O)C=Cc1ccccc1` (centres undefined) is 156 to 158 °C; for `COc1cc(N)c(Cl)cc1C(=O)NCC1CCN(CCCCCOc2ccccc2)CC1` it is 129 to 132 °C; for `CC(=O)OCC1OC(n2cc(Cc3ccc(Cl)cc3)c3c(Cl)cccc32)C(OC(C)=O)C(OC(C)=O)C1OC(C)=O` (centres undefined) it is 214 to 216 °C.
In turn, `Cn1ncnc1COc1nc2c(cc1C(C)(C)C)nnn2-c1ccccc1F` came in with a melting point of 115 to 117 °C.
Then `CS(=O)(=O)c1ccc(-c2cnn(-c3cc(F)cc(F)c3)c(=O)c2Oc2ccc(F)cc2)cc1`, with 209 to 211 °C; and `C=C1CC2CC(O)CCC2(C)C2CC(O)C3(C)C(C(C)CCC(=O)O)CCC3C12` (centres undefined), with 199 to 202 °C; and `CNc1nc(-c2cccc(N)c2)c2cc(OC)c(OC)cc2n1`, with 197 to 199 °C.
Then `CCOC(=O)C(=Cc1ccccn1)C(=O)C(C)C`, with 53 to 55 °C; and `Cc1c(CCc2ccccc2)c(=O)oc2cc(O)cc(O)c12`, with 248 to 252 °C.
For `C=CCSc1cc(C(=O)O)cc(N=Nc2cc(C(=O)O)cc(SCC=C)c2C(=O)c2ccccc2)c1C(=O)c1ccccc1`, the melting point lay within 162 to 163 °C.
Turning to `Cc1cccc(Cl)c1Nc1ccccc1CC(N)=O`, the melting point is 139 to 141 °C.
In turn, `COc1cc(/C=C/CNc2cccc(-c3ccnc4c(C(=O)c5cccs5)cnn34)c2)ccc1O` had a melting point of 180 to 184 °C.
The figure for `Cc1cc(-c2nncc3c(C(C)(C)C)c(OCc4ncnn4C)nn23)no1` is 171 to 174 °C.
The figure for `N=C(NO)c1ccnc(N)c1` is 188 °C; for `CCNC(=O)CC1CN=C(c2cc3cc(Oc4ccc(S(C)(=O)=O)nc4)cc(CC)c3[nH]2)S1` (centres undefined) it is 227 to 229 °C.
In the case of `COC(=O)[C@@H]1C[C@H](OC(=O)c2ccsc2)C(=O)[C@H]2[C@@]1(C)CC[C@H]1C(=O)O[C@H](c3ccoc3)C[C@]21C`, the melting point lay in the range of 211 to 212 °C.
Regarding `CCCc1cc(C(O)(CC)CC)ccc1-c1cc(OCc2ccc(CO)c(CO)c2)ccc1C`, the melting point was determined as 97 °C.
Then `Cc1ccnc2c1nc(COc1ccc(CC3SC(=O)N(C(c4ccccc4)(c4ccccc4)c4ccccc4)C3=O)cc1)n2C` (centres undefined), with 92 to 105 °C.
`COC(=O)CCc1ccc(CBr)cc1` showed a melting point of 38 to 42 °C.
Then `FC(F)(F)c1ccc2nc[nH]c2c1`, with 89 to 91 °C; and `COCc1nc2c(N)nc3cc(CCC(=O)N4CCOCC4)ccc3c2n1CC(C)(C)O`, with 215 to 217 °C.
In the case of `CC(C)(Oc1cccc2ccccc12)C(=O)Nc1ccc(C(=O)O)cc1`, the melting point came out at 155 °C.
For `CC(CCCc1ccc(CCCCNC(=N)NC(=O)c2nc(Cl)c(N)nc2N)cc1)NCC(O)c1cccc(O)c1` (centres undefined), the melting point was 82 to 86 °C.
Turning to `CC1(c2ccc(Oc3nc4ccc(Cl)cc4s3)cc2)OC(=O)N(Nc2ccccc2)C1=O` (centres undefined), the melting point lay within 207 to 209 °C.
The compound `O=C(O)c1ccc(C(=O)O)c2c(Br)cccc12` showed a melting point of 288 to 290 °C.
In the case of `O=c1[nH]nc(-c2ccc(-n3ccnc3)cc2)c2ccccc12`, the melting point was 310 to 311 °C.
The figure for `CCOC(=O)c1ncc2[nH]c3cccc(Oc4ccc(Cl)cn4)c3c2c1C` is 194 to 196 °C; for `CCCc1nc2ccc(N(C)C)nn2c1S(N)(=O)=O` it is 215 to 217 °C; for `CCCCCCCCCC(=O)Nc1cc(NC(=O)CCCCCCCCC)cc(N(CC(=O)OCc2ccccc2)CC(=O)OCc2ccccc2)c1` it is 127 to 129 °C.
`O=C(Cc1cccc2ccccc12)N(O)[C@H](CN1CCCC1)c1ccccc1` displayed a melting point of 81 to 83.5 °C.
`COc1ccc(C(CCC(=O)c2ccccc2)C(=O)c2ccc(OCc3ccccc3)cc2)cc1` (centres undefined) displayed a melting point of 76 to 78 °C.
`NC(=O)c1cc(Oc2ccc(C(F)(F)F)cc2Cl)ccc1[N+](=O)[O-]` displayed a melting point of 139 to 143 °C.
In turn, `CC(C)(C)c1cc(-c2nnc(NC#N)s2)cc(C(C)(C)C)c1O` showed a melting point above 250 °C.
For the compound `CCOC(=O)Cc1c2ccccc2n2c(-c3ccccc3)nccc12`, the melting point was 59 to 62 °C.
For `COc1ccc(COc2coc(COC3CCCCO3)cc2=O)cc1` (centres undefined), the melting point lay in the range of 95 to 96 °C.
The figure for `O=Cc1ccc(-n2ncc3sc4ccccc4c32)cc1` is 261 to 263 °C.
